In US20260021103A1, “IKZF2 AND CK1-ALPHA DEGRADING COMPOUNDS AND USES THEREOF” (President and Fellows of Harvard College, priority 2022, published 2026):

Tests used:
Format in all cases: cell-based
Conditions in all cases: 24 h, HEK293T GFP reporter
IKZF2 = biological target: T1, IKZF2 (Homo sapiens, UniProt Q96SW2+Q9UKS7); assay: Flow cytometry for measuring degradation, HEK293T GFP-POI reporter cells (IKZF2)
T1 construct: expressed in transfected cells; host or cells: HEK293T (lentiviral transduction, puromycin selection, FACS sorting)

CK1α = biological target: T2, CK1α (Homo sapiens, UniProt P48729+Q96SW2); assay: Flow cytometry for measuring degradation, HEK293T GFP-POI reporter cells (CK1α)
T2 construct: expressed in transfected cells; host or cells: HEK293T (lentiviral transduction, puromycin selection, FACS sorting)

IKZF1 = biological target: T3, IKZF1 (Homo sapiens, UniProt Q13422+Q96SW2); assay: Flow cytometry for measuring degradation, HEK293T GFP-POI reporter cells (IKZF1)
T3 construct: expressed in transfected cells; host or cells: HEK293T (lentiviral transduction, puromycin selection, FACS sorting)

GSPT1 = GSPT1 (Homo sapiens, UniProt P15170+Q96SW2); assay: Flow cytometry for measuring degradation, HEK293T GFP-POI reporter cells (GSPT1); design: expressed in transfected cells; host or cells: HEK293T
GSPT1, sequence (P15170 whole entry): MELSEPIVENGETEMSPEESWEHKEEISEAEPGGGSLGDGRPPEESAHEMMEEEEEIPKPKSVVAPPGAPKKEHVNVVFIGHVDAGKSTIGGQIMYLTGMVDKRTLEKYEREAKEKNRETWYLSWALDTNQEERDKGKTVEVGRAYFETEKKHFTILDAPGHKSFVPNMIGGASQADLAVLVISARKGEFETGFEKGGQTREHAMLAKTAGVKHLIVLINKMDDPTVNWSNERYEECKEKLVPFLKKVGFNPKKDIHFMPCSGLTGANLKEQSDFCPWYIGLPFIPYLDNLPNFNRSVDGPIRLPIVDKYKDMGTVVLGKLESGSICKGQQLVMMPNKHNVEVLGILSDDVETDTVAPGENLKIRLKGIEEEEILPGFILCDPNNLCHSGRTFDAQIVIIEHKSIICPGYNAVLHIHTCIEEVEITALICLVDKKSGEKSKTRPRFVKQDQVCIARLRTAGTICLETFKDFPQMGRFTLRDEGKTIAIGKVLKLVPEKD
GSPT1, sequence (Q96SW2 whole entry): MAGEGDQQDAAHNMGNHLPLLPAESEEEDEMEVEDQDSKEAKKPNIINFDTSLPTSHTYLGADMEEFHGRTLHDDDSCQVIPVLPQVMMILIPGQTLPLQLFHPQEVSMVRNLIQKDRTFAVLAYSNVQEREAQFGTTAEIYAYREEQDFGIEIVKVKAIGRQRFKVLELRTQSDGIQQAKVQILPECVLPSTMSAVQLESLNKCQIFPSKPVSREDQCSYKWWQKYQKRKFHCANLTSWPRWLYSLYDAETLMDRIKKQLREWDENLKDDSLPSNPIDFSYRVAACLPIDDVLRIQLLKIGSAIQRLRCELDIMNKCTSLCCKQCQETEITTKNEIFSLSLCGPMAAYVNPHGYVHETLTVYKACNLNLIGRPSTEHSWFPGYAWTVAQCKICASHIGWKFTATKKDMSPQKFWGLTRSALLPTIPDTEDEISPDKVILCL
GSPT1, sequence (Q16531 whole entry partner): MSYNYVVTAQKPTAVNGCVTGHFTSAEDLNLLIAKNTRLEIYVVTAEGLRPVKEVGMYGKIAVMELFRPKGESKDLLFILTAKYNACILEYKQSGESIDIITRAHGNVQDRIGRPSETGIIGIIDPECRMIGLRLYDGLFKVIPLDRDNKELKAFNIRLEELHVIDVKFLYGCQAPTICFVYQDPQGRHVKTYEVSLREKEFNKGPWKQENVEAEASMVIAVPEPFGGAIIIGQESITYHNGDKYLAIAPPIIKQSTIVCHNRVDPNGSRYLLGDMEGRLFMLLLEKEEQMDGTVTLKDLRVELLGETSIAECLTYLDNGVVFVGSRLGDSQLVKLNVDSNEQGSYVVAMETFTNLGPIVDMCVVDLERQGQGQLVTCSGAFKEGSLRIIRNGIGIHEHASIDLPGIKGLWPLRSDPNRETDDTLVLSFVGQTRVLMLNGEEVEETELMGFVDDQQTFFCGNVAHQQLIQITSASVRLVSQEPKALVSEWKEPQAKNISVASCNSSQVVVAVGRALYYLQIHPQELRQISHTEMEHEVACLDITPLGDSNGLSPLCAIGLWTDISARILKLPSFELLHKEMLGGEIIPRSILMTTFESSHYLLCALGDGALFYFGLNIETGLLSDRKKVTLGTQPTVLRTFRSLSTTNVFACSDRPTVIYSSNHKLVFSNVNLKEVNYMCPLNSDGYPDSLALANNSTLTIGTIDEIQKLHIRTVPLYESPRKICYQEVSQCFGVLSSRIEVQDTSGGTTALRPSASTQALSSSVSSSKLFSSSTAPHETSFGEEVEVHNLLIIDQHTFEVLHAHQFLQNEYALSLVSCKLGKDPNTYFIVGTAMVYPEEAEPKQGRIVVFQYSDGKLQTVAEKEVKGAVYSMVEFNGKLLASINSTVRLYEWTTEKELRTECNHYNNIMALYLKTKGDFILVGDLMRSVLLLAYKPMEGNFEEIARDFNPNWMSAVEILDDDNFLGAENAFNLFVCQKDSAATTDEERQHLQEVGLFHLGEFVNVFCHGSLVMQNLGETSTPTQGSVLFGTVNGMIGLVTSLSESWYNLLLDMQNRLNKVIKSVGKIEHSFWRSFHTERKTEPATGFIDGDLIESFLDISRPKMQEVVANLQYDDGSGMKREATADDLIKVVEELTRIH

T1 sequence (Q9UKS7 whole entry): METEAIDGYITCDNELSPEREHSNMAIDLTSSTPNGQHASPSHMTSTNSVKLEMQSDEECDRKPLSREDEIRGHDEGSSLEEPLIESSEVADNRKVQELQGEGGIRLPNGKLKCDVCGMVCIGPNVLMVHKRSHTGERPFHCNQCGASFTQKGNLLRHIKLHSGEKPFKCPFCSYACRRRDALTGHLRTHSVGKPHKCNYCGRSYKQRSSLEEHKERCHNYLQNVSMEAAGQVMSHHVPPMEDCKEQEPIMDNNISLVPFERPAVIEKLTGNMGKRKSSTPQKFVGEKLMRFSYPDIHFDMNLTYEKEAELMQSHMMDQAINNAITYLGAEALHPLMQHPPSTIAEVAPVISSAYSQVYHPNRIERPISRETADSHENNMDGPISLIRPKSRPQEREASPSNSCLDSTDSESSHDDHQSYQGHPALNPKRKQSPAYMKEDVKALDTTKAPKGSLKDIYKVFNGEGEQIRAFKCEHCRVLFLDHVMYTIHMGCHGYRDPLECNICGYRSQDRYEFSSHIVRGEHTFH
T1 sequence (Q96SW2 whole entry): as the sequence (Q96SW2 whole entry) above
T1 sequence (Q16531 whole entry partner): as the sequence (Q16531 whole entry partner) above
T2 sequence (P48729 whole entry): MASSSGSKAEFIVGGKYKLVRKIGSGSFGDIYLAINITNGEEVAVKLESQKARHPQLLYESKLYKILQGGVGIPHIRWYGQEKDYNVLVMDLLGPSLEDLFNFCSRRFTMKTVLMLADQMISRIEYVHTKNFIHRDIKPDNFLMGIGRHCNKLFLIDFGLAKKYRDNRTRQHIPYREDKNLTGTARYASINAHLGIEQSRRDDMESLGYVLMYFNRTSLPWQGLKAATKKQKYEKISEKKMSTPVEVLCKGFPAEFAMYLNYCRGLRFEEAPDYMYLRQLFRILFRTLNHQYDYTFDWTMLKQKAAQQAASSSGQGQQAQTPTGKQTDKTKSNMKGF
T2 sequence (Q96SW2 whole entry): as the sequence (Q96SW2 whole entry) above
T2 sequence (Q16531 whole entry partner): as the sequence (Q16531 whole entry partner) above
T3 sequence (Q13422 whole entry): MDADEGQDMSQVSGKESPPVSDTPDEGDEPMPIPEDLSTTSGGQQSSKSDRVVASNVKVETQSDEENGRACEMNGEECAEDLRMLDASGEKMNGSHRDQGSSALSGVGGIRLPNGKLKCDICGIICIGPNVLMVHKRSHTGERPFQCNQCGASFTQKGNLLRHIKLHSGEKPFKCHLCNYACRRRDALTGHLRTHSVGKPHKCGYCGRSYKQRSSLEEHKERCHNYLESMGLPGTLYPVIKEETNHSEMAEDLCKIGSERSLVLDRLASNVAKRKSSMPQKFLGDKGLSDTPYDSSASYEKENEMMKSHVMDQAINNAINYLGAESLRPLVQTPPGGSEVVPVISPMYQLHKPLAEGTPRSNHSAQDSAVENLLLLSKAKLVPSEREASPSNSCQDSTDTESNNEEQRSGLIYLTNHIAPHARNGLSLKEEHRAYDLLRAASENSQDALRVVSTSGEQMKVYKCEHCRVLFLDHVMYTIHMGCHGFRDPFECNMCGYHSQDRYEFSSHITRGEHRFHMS
T3 sequence (Q96SW2 whole entry): as the sequence (Q96SW2 whole entry) above
T3 sequence (Q16531 whole entry partner): as the sequence (Q16531 whole entry partner) above

Row | Structure (SMILES) | IKZF2% degradation at 100 nM (IKZF2) [%] | IKZF2% degradation at 1 μM (IKZF2) [%] | CK1α % degradation at 100 nM (CK1α) [%] | CK1α % degradation at 1 μM (CK1α) [%] | IKZF1% degradation at 100 nM (IKZF1) [%] | IKZF1% degradation at 1 μM (IKZF1) [%] | GSPT1% degradation at 100 nM (GSPT1) [%] | GSPT1% degradation at 1 μM (GSPT1) [%]
1 | CC(=O)Nc1ccc2c(c1)CN(C1CCC(=O)NC1=O)C2=O (stereo not drawn) [DEG-66, N-(2-(2,6-dioxopiperidin-3-yl)-1-oxoisoindolin-5-yl)acetamide] | 16.6 ± 0.1 | 48.5 ± 0.2 | 12 ± 1.3 | 25.4 ± 0.8 | 4.4 ± 0.8 | 10.9 ± 0.9 | 9.9 ± 0.8 | 8.6 ± 0.8
2 | COc1ccc2cccc(CC(=O)Nc3ccc4c(c3)CN(C3CCC(=O)NC3=O)C4=O)c2c1 (stereo not drawn) [DEG-68, N-(2-(2,6-dioxopiperidin-3-yl)-1-oxoisoindolin-5-yl)-2-(7-methoxynaphthalen-1-yl)acetamide] | 92.2 ± 0.1 | 94.4 ± 0.1 | 59.7 ± 1.2 | 64.4 ± 1.6 | 96.9 ± 0.1 | 97.6 ± 0.1 | 16.6 ± 1.3 | 21.3 ± 1.8
3 | COc1ccc(Oc2cccc(C(=O)Nc3ccc4c(c3)CN(C3CCC(=O)NC3=O)C4=O)c2)cc1 (stereo not drawn) [DEG-69, N-(2-(2,6-dioxopiperidin-3-yl)-1-oxoisoindolin-5-yl)-3-(4-methoxyphenoxy)benzamide] | 89.5 ± 0.1 | 93.2 ± 0.7 | 64.8 ± 0.3 | 65.5 ± 2.3 | 98.6 ± 0.1 | 98.6 ± 0.1 | 12.5 ± 1.2 | 16.8 ± 1.9
4 | COc1ccc(Oc2ccc(C(=O)Nc3ccc4c(c3)CN(C3CCC(=O)NC3=O)C4=O)cc2)cc1 (stereo not drawn) [DEG-70, N-(2-(2,6-dioxopiperidin-3-yl)-1-oxoisoindolin-5-yl)-4-(4-methoxyphenoxy)benzamide] | 53.6 ± 0.6 | 84.5 ± 0.3 | 44.9 ± 3.4 | 55.8 ± 5.6 | 6.5 ± 1.4 | 16.2 ± 0.6 | 4.3 ± 1.1 | 4.8 ± 0.4
5 | O=C1CCC(N2Cc3cc(NC(=O)Cc4ccc5ccccc5c4)ccc3C2=O)C(=O)N1 (stereo not drawn) [DEG-71, N-(2-(2,6-dioxopiperidin-3-yl)-1-oxoisoindolin-5-yl)-2-(naphthalen-2-yl)acetamide] | 93.8 ± 0.5 | 88.5 ± 3 | −190.2 ± 2.8 | −153 ± 2.3 | 98.5 ± 0.1 | 98.4 ± 0.1 | 63.1 ± 0.4 | 69.4 ± 0.6
6 | O=C1CCC(N2Cc3cc(NC(=O)c4ccc5ncsc5c4)ccc3C2=O)C(=O)N1 (stereo not drawn) [DEG-72, N-(2-(2,6-dioxopiperidin-3-yl)-1-oxoisoindolin-5-yl)benzo[d]thiazole-6-carboxamide] | 41.8 ± 2 | 82.5 ± 0.9 | 33.2 ± 3.2 | 54.5 ± 3.8 | 2.7 ± 1.2 | 6.5 ± 1.2 | −1.7 ± 3.4 | −0.9 ± 2.6
7 | O=C1CCC(N2Cc3cc(NC(=O)c4ccc(Sc5ccccc5)cc4)ccc3C2=O)C(=O)N1 (stereo not drawn) [DEG-73, N-(2-(2,6-dioxopiperidin-3-yl)-1-oxoisoindolin-5-yl)-4-(phenylthio)benzamide] | 67.4 ± 1.2 | 87.8 ± 0.3 | 56.6 ± 1.2 | 60.4 ± 0.6 | 11.7 ± 0.3 | 26.3 ± 0.6 | 11.1 ± 1.4 | 19.8 ± 0.8
8 | COc1ccc2c(c1)OCC(C(=O)Nc1ccc3c(c1)CN(C1CCC(=O)NC1=O)C3=O)=C2 (stereo not drawn) [DEG-74, N-(2-(2,6-dioxopiperidin-3-yl)-1-oxoisoindolin-5-yl)-7-methoxy-2H-chromene-3-carboxamide] | 57.1 ± 1.1 | 96 ± 0 | 59.5 ± 1.1 | 64.8 ± 0.6 | 4.3 ± 0.5 | 32.5 ± 0.4 | 9 ± 2.6 | 37.5 ± 2.1
9 | COc1cc(Oc2ccccc2)ccc1C(=O)Nc1ccc2c(c1)CN(C1CCC(=O)NC1=O)C2=O (stereo not drawn) [DEG-75, N-(2-(2,6-dioxopiperidin-3-yl)-1-oxoisoindolin-5-yl)-2-methoxy-4-phenoxybenzamide] | 54.6 ± 1.1 | 83.3 ± 0.3 | 48.1 ± 2.2 | 64 ± 1.5 | 2.4 ± 1.1 | 7 ± 0.4 | 0.4 ± 1.4 | 12.6 ± 1.2
